Results on four molecules are retold here after patent US4639370A, “Pharmaceutical composition” (Farmitalia Carlo Erba S.p.A., priority 1984, dated 1987).

≈ marks a conversion by molar mass, not a printed value. Read-outs that look alike come from different tables or passages of the source. Where only a bound is given, the exact number is not on record here.

The text on data set [1]:
The completeness of the amorphization process can be checked by the absence in the Differential Scanning Calorimetry thermogram of the resulting drug-polymer system of the transition peak relative to the solid/liquid endothermic transition of the crystalline drug. The absence of the transition peak means that the enthalpy of melting is practically zero.
This transformation is indicated by the shifting of the original endothermic peak of the DSC thermogram to lower temperatures, which leads to higher dissolution rates and bioavailability.
Differential Scanning Calorimetry Data

The conditions of data set [2]: buffer, pH 2.
Description: (§1) The flasks were placed in a shaking thermostated apparatus and aliquots of sample solutions were taken by filtering through a Millipore membrane.
The indoprofen concentrations were determined by spectrophotometry (λ=280 nm).
The nature of data set [3]: Solubility of MAP systems, pH 5.5 phosphate buffer, 37° C. It counts as physicochemical.
Description: The flasks were placed in a shaking thermostated apparatus and aliquots of sample solutions were taken by filtering through a Millipore membrane. The concentration of MAP in the filtered aliquot was determined both by spectrophotometry (SP 8-100, Pye Unicam) after dilution with methanol, λ=247 nm, and by HPLC (column: Spherisorb S30 D52, Phase Sep.; mobile phase acetonitrile/water 70/30 v/v; flow rate 1 ml/min; U.V. detection, λ=242 nm), after dilution with acetonitrile.
The nature of data set [4]: Solubility of griseofulvin systems, pH 7.4 buffer, 37° C.
Description: as §1
The griseofulvin concentrations were determined by spectrophotometry (λ=294 nm).
A short description of data set [5]: Solubility of indomethacin systems, pH 6.8 buffer, 37° C. The format is physicochemical. The procedure: The indomethacin concentrations were determined by spectrophotometry (λ=317 nm).

As for `CC(C(=O)O)c1ccc(N2Cc3ccccc3C2=O)cc1` (stereo not drawn) [Pure crystalline Indoprofen, indoprofen], the “Melting Point” value in data set [1] is 212-215 °C. The “% Residual of Original Heat of Fusion” value in data set [1] (indoprofen systems, Table 2) was 100.0%. The “Heat of Fusion” value in data set [1] (indoprofen systems, Table 2) was found to be 134.6 J/g. The “Solubility (indoprofen concentration)” value in data set [2] (5 min) was 1.6 µg/mL (≈ 5.69 µM); in data set [2] (0.25 h), 3.0 µg/mL (≈ 10.7 µM); in data set [2] (1 h) it was 4.8 µg/mL (≈ 17.1 µM); in data set [2] (24 h) it was 10.3 µg/mL (≈ 36.6 µM).
In the case of `CC(=O)O[C@]1(C(C)=O)CC[C@H]2[C@@H]3C[C@H](C)C4=CC(=O)CC[C@]4(C)[C@H]3CC[C@@]21C` [Pure crystalline MAP, medroxyprogesterone acetate], in data set [1], the “Melting Point” value is 205-206 °C. In data set [1], the melting point stood at 205.6 °. For the same molecule, the “% Residual of Original Heat of Fusion” value in data set [1] (MAP systems, Table 1) is on record as 100.0%. Further, the “Heat of Fusion” value in data set [1] (MAP systems, Table 1) is listed as 88.0 J/g. Besides, the “Solubility (MAP dissolved)” value in data set [3] (5 min) was less than 0.04 µg/mL; in data set [3] (15 min), 0.32 µg/mL; in data set [3] (1 hr) it was 0.68 µg/mL; in data set [3] (6 hrs), 1.00 µg/mL.
Regarding `COC1=CC(=O)C[C@@H](C)[C@]12Oc1c(Cl)c(OC)cc(OC)c1C2=O` [Pure crystalline Griseofulvin, griseofulvin], in data set [1], the “Melting Point” value was determined as 218.8 °C. Also, the “% Residual of Original Heat of Fusion” value in data set [1] (griseofulvin systems, Table 3) is recorded as 100%. Moreover, the “Heat of Fusion” value in data set [1] (griseofulvin systems, Table 3) is reported as 119.22 J/g. In addition, the “Solubility (griseofulvin concentration)” value in data set [4] (5 min) stood at 9.1 µg/mL (≈ 25.8 µM); in data set [4] (15 min) it was 11.0 µg/mL (≈ 31.2 µM); in data set [4] (1 hr) it was 10.9 µg/mL (≈ 30.9 µM); in data set [4] (3 hrs), 11.3 µg/mL (≈ 32 µM); in data set [4] (24 hrs), 14.9 µg/mL (≈ 42.2 µM).
As for `COc1ccc2c(c1)c(CC(=O)O)c(C)n2C(=O)c1ccc(Cl)cc1` [Pure crystalline Indomethacin, indomethacin], the “Heat of Fusion” value in data set [1] (indomethacin systems, Table 4) turned out to be 110.8 J/g. In addition, the “Melting Point” value in data set [1] (indomethacin systems, Table 4) was found to be 160.2 °C. In addition, the “Solubility (indomethacin concentration)” value in data set [5] (5 min) came out at 230.2 µg/mL (≈ 643 µM); in data set [5] (15 min), 358.2 µg/mL (≈ 1000 µM); in data set [5] (1 hr), 482.1 µg/mL (≈ 1350 µM); in data set [5] (3 hrs), 502.8 µg/mL (≈ 1410 µM); in data set [5] (24 hrs) it was 502.0 µg/mL (≈ 1400 µM).
